What was measured:
[1] = cited from earlier work
[2] = biological target: endogenous CETP from serum (Homo sapiens (Human), UniProt P11597); experiment: RTA assay using endogenous CETP from serum (95% human serum); type: biochemical; details: RTA in 95% human serum, Table 2
Description: In Vitro Radioactive Assays of CETP-Catalyzed CE and TG Transfer (RTA Assay)
Reagents and sources are: [3H] cholesteryl oleate (GE #TRK.886), [3H] Triolein (Perkin-Elmer NET-431), Butylated hydroxyl toluene (Aldrich, #D4740-4), DOPC (Sigma, # P6354), Sodium Bromide (Fisher scientific #S255-500), PEG 8000 (Fisher, #BP233-1), and human HDL (Intracel Corp #RP-036).
An in vitro assay for determining IC50's to identify compounds that inhibit CETP transfer activity is performed based on a modification of a published method (Morton and Zilversmit, (1981) A plasma inhibitor of triglyceride and cholesteryl ester transfer activities, J. Biol. Chem. 256(23), 11992-11995). The ability of inhibitors to alter CETP activity is performed using two different assays: one using recombinant CETP and one using an endogenous plasma source of CETP. Both assays measure the transfer of [3H] cholesteryl oleate or [3H] triolein from exogenous LDL to HDL.
Radiolabeled donor particles are generated by first combining 100 μl of 200 μM butylated hydroxyl toluene in CHCl3, 216 μL of 21.57 mM DOPC in EtOH, and either 500 μCi [3H]-triolein (Perkin Elmer #NET-431) or 500 μCi [3H]-cholesteryl oleate (GE #TRK886) in a glass tube. Reagents are mixed, dried under nitrogen, and then resuspended in 2 mL of 50 mM Tris, 27 μM EDTA at pH 7.4. After a brief vortex, the solution is sonicated until clear and mixed with 20 mL of fresh human serum. The mixture is incubated overnight at 37° C. The [3H] labeled LDL substrate is separated at 1.063 g/ml density by sequential ultracentrifugal flotation in NaBr according to the method by (Havel, Eder et al. 1955; Chapman, Goldstein et al. 1981). Once isolated the particles are dialyzed 3× in CETP buffer (50 mM Tris, pH 7.4, 100 mM NaCl, 1 mM EDTA). Human HDL is purchased from Intracel and used as the acceptor particles.
Transfer assays are performed in a 96-well v-bottom polypropylene plate. For the RTA using recombinant CETP (2% RTA), an assay cocktail is prepared with the final concentrations 128 μg/mL HDL, 20 nM rCETP, 2% human serum, and 1×CETP buffer. 1 μL of each test compound diluted in DMSO is added to 47 μL of assay cocktail per well and incubated at 37° C. for 1 hour. To initiate the transfer reaction, 2 μL radiolabeled LDL is added. After an additional 60 min of incubation at 37° C., the transfer action is terminated by precipitation of LDL with an equal volume of 20% W/V PEG 8000. The plates are centrifuged at 2000 rpm for 30 minutes at 4° C. A 40 μL aliquot of the HDL-containing supernatant is transferred to a Packard Optiplate™ with 200 μL of MicroScint™ 20. After mixing, plates are counted by liquid scintillation. […]

[3] = torcetrapib and atorvastatin concomitantly compared with atorvastatin alone; cited from earlier work
[4] = patients, with baseline statin therapy, compared with just a statin

endogenous CETP from serum, sequence (P11597 18-493 limits assumed): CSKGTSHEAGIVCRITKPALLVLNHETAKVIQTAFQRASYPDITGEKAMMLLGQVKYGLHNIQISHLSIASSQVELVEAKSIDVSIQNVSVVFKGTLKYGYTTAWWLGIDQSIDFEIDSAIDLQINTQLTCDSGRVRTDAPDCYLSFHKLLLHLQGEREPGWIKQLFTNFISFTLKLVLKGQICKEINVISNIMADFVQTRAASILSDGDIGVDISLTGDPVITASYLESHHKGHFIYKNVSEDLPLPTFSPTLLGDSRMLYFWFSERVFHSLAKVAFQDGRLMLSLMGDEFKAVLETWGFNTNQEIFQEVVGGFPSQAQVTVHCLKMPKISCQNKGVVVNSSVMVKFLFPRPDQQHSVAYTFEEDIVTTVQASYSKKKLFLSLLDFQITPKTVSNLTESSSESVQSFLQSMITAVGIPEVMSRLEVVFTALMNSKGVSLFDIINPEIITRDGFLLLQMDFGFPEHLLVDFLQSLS

Q: Which increase in mortality ([1]; patients treated with anacetrapib) does the source give for `COc1cc(F)c(C(C)C)cc1-c1ccc(C(F)(F)F)cc1CN1C(=O)O[C@H](c2cc(C(F)(F)F)cc(C(F)(F)F)c2)[C@@H]1C` [anacetrapib] here?
A: The increase in mortality was “unlikely”.

Q: What about the “decrease of LDL-C” value [1, 4] of the same compound?
A: The value was 40%.

Q: What about the “increase of HDL-C” value [1, 4] of the same compound?
A: The value was 138%.

Q: For `O[C@H](CN1c2ccc(F)cc2N(Cc2cccc(OC(F)(F)F)c2)CC1c1cccc(OC(F)F)c1)C(F)(F)F` (some centres unmarked) [Example 58], which IC50 [2] is on record?
A: Its IC50 is 16 nM.

Q: For `CCOC(=O)N1c2ccc(C(F)(F)F)cc2[C@@H](N(Cc2cc(C(F)(F)F)cc(C(F)(F)F)c2)C(=O)OC)C[C@H]1CC` [torcetrapib], which mortality [3] is on record?
A: Its mortality is “higher incidence of mortality”.

— patent US9126976B2 (Merck Sharp & Dohme Corp., priority 2011, dated 2015)
